Entries after “also recorded” stand apart in the source; their conditions may differ.
How the values were obtained:
[1] = biological target: T1, phosphonate monoester hydrolase (PEH) (Trinickia caryophylli, UniProt Q45087); experiment: Hydrolysis of protoxin to glyphosate by phosphonate monoester hydrolase; format: biochemical, Pseudomonas caryophilli PG2982
T1 sequence (Q45087 1-514): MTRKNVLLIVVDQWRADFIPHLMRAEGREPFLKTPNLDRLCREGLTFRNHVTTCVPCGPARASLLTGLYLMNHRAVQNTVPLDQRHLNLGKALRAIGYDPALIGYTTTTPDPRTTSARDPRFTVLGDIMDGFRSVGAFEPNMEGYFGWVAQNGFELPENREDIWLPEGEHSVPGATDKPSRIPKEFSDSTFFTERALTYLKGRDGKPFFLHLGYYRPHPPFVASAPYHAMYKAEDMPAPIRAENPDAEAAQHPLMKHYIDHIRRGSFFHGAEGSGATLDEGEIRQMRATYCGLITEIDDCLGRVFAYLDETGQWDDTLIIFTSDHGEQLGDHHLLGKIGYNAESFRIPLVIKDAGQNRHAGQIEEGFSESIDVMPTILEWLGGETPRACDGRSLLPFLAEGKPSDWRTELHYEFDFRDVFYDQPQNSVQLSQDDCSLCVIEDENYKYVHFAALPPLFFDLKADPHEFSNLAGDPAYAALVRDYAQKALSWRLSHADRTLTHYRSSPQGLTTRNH
Protocol: The critical tests for a prophytotoxin to be used in negative selection, cell ablation and as a gametocide are that the compound is non-phytotoxic per se but can be hydrolyzed into a phytotoxin by the phosphonate monoester hydrolase protein. The most general and specific method to determine if a protoxin is hydrolyzed to a toxic form of glyphosate is a HPLC assay. The compounds are dissolved at 100 mM concentration in a suitable buffer such as 10 mM TAPS, (N-Tris(hydroxymethyl)methyl-2-aminopropane sulfonic acid) pH 9.0. Triplicate samples (0.1 ml) of the compound are then diluted with 0.9 ml of 10 mM TAPS, pH 9.0 and with 0.9 ml 10 mM TAPS, pH 9.0 plus one unit (1 μmol/min) of enzyme. After 24 hour incubation at 25° C., the samples are injected onto a HPLC column for glyphosate analysis. […] The protoxin and glyphosate are separated on an anion exchange column. the glyphosate is oxidized as it elutes in the presence of bleach and is then derivatized by o-pthaldehyde to a fluorescent derivative which can be quantitatively measured by a fluorescence monitor. […] After two days, the plant is dissected into individual tissues and the amount of protoxin in each tissue determined. […] The tissue samples were then combusted and the amount of radiolabelled compound in each tissue determined by scintillation counting. […]

PG2982 = experiment: In vivo (3-14C-) glyceryl glyphosate hydrolysis assay in whole cells; format: cell-based, Pseudomonas caryophilli; settings: strain PG2982; three hour incubation, 30° C.
Protocol: Bacteria which grew in this medium using glyceryl glyphosate as a sole phosphate source had the ability to cleave both the ester and the phosphonate bond to release the free phosphate. For these bacteria to be useful in the present invention, the first step in the mineralization of glyceryl glyphosate needed is the hydrolysis of the phosphonate ester. Each of the three bacteria which utilized glyceryl glyphosate as a phosphate source were then assayed for a phosphonate monoester hydrolase activity using an in vivo (3-^14 C-) glyceryl glyphosate assay. A 150 ml culture of each bacteria was grown in DF minimal medium with 0.2 mM HK2 PO4 as a phosphate source in a 500 ml flask, 30° C., with shaking. The bacteria were pelleted by centrifugation at 5,000×g for 10 min and resuspended at 10 mg fresh weight/ml. An assay mix included 50 μl cells plus 10 μl (3-^14 C-) glyceryl glyphosate (10,000 cpm/μl) and kept at 30° C. with shaking. After a three hour incubation period, the cells were pelleted in a microfuge and the supernatant injected onto an HPLC anion exchange column and glyphosate analyzed as described above. The pellet was washed twice with 1 ml 10 mM HEPES, pH 7.0, and resuspended in 25 μl buffer. The cells were lysed with 25 μl quench and the debris pelleted in a microfuge. The pellet extract was then analyzed for glyphosate product as described above. […]

Arabidopsis callus = format: cell-based
[2] = Translocation of radiolabelled compound applied to tomato leaves; format: in vivo; settings: tissues analysed after two days
Protocol: The critical tests for a prophytotoxin to be used in negative selection, cell ablation and as a gametocide are that the compound is non-phytotoxic per se but can be hydrolyzed into a phytotoxin by the phosphonate monoester hydrolase protein. The most general and specific method to determine if a protoxin is hydrolyzed to a toxic form of glyphosate is a HPLC assay. The compounds are dissolved at 100 mM concentration in a suitable buffer such as 10 mM TAPS, (N-Tris(hydroxymethyl)methyl-2-aminopropane sulfonic acid) pH 9.0. Triplicate samples (0.1 ml) of the compound are then diluted with 0.9 ml of 10 mM TAPS, pH 9.0 and with 0.9 ml 10 mM TAPS, pH 9.0 plus one unit (1 μmol/min) of enzyme. After 24 hour incubation at 25° C., the samples are injected onto a HPLC column for glyphosate analysis. […] The protoxin and glyphosate are separated on an anion exchange column. the glyphosate is oxidized as it elutes in the presence of bleach and is then derivatized by o-pthaldehyde to a fluorescent derivative which can be quantitatively measured by a fluorescence monitor. […] After two days, the plant is dissected into individual tissues and the amount of protoxin in each tissue determined. […] The tissue samples were then combusted and the amount of radiolabelled compound in each tissue determined by scintillation counting.

## O=C(O)CNCP(=O)(O)OCC(O)CO (stereo not shown) [glyceryl glyphosate, glycine, N-([hydroxy (2,3 dihydroxy propoxy)phosphonyl]methyl)]
[1]
  Substrate for / hydrolysis by phosphonate monoester hydrolase: is a substrate for the phosphonate monoester hydrolases; also recorded: hydrolyze the glyceryl glyphosate into glycerol and glyphosate
PG2982
  In vivo Hydrolysis of Glyceryl Glyphosate into Glyphosate: Yes
Arabidopsis callus
  Cytotoxicity: relatively non-cytotoxic
[2]
  Translocation to developing anthers: translocates to developing anthers
